Literature values as cited in publication PMC6940698.

Assay: not told

With O=C(O)c1cc(S(=O)(=O)O)ccc1O as the compound, how does the “log partition benzene / water” value read?
The value was 0.34 ratio.

And the “log partition toluene / water” value?
Its value is 0.26 ratio.

And the “log partition xylene / water” value?
Its value is 0.23 ratio.
